Laboratory results as given in patent US20130023504A1, “Modulation of Prostaglandin/Cyclooxygenase Metabolic Pathways” (HUNTER-FLEMING LIMITED, priority 2006, published 2013).
Marks after values point to notes of the source that are not given here.

Tested on: human PBMC
Test: PG levels (PGE2, PGD2, 15d-PGJ2) in culture medium of human PBMC cultured with and without TNF-α, EIA (Example 3)
Type: cell-based
Experimental: Whole blood was collected from donors in EDTA-supplemented pouches at the Etablissement Français du Sang (Brest, France). The PBMC were isolated then from whole blood under sterile conditions within 36 hours after collection. Gradient density centrifugation was carried out on Ficoll (Eurobio). After washing in RPMI 1640 medium (Eurobio), cells were suspended in RPMI 1640 medium supplemented with 10% heat-inactivated fetal calf serum (Eurobio), 2 mM glutamine (D. Dutscher), 100 U of penicillin/ml (D. Dutscher), and 100 μg of streptomycin/ml (D. Dutscher). Monocytes were selected by plastic adherence for 1 h and approximately 10^7 cells were plated in 6-well tissue culture plates (3 mL medium per well). All incubations were performed in a humidified incubator at 37° C. and 5% CO2. Cells were recovered and dispersed in 2 ml fresh incubation medium supplemented with either 7β-hydroxyEPIA, 7β-hydroxy-DHEA, or 7α-hydroxy-DHEA (in 20 μL ethanol) in the presence or absence of 0.01 μg/mL TNF-α (Sigma-Aldrich). Control incubations contained 20 μl ethanol but no steroid. Supernatants were collected after 4 h and 24 hours incubations for measurement of their PG contents and cells were used for subsequent RNA isolation. A single step extraction method using the Trizol Reagent (Invitrogen, Cergy-Pontoise, France) provided total RNA.
Commercially available EIA kits were used for the determination of PGE2 levels (Oxford Biomedical Research, UK) and 15d-PGJ2 levels (Assay designs, Euromedex, France) in culture media. Measurement of PGD2 levels was obtained using the prostaglandin D2-MOX EIA kit (Cayman Chemical, Euromedex). In this case, and prior to assay, the fresh samples were immediately treated with the MOX-HCl reagent, which converted PGD2 into PGD2-MOX, thus preventing any further chemical degradation.
All assays were carried out in triplicate and results were plotted as mean±S.E.M. One-way analysis of variance was performed followed by Duncan's multiple range tests in order to compare the differences between groups. Differences were considered statistically significant when p<0.05.

[1] = 100 nM + TNF-α (10 ng/mL), 24 h

## CC12CCC3C(C1CCC2=O)[C@@H](O)C[C@H]1C[C@@H](O)CCC31C (stereo partly drawn) [Compound 7β-OH-EPIA, 7β-hydroxy-EPIAndrosterone]
1 nM + TNF-α (10 ng/mL), 4 h
  15d-PGJ2: 0.37 ± 0.029 ng/mL
  PGD2: 0.22 ± 0.082 ng/mL
  PGE2: 0.50 ± 0.012 ng/mL
1 nM + TNF-α (10 ng/mL), 24 h
  15d-PGJ2: 2.18 ± 0.183^c ng/mL
  PGD2: 0.47 ± 0.013^d ng/mL
  PGE2: 0.70 ± 0.001^b ng/mL
1 nM, 4 h, without TNF-α
  15d-PGJ2: 0.39 ± 0.080 ng/mL
  PGD2: 0.18 ± 0.005 ng/mL
  PGE2: 0.26 ± 0.011 ng/mL
1 nM, 24 h, without TNF-α
  15d-PGJ2: 0.85 ± 0.014^a ng/mL
  PGD2: 0.21 ± 0.012^a ng/mL
  PGE2: 0.26 ± 0.015 ng/mL
10 nM + TNF-α (10 ng/mL), 4 h
  15d-PGJ2: 0.40 ± 0.007 ng/mL
  PGD2: 0.22 ± 0.010 ng/mL
  PGE2: 0.49 ± 0.021 ng/mL
10 nM + TNF-α (10 ng/mL), 24 h
  15d-PGJ2: 2.77 ± 0.021^c ng/mL
  PGD2: 0.42 ± 0.009^d ng/mL
  PGE2: 0.80 ± 0.012^b ng/mL
10 nM, 4 h, without TNF-α
  15d-PGJ2: 0.39 ± 0.010 ng/mL
  PGD2: 0.19 ± 0.020 ng/mL
  PGE2: 0.23 ± 0.022 ng/mL
10 nM, 24 h, without TNF-α
  15d-PGJ2: 0.91 ± 0.032^a ng/mL
  PGD2: 0.23 ± 0.001^a ng/mL
  PGE2: 0.23 ± 0.021 ng/mL
100 nM + TNF-α (10 ng/mL), 4 h
  15d-PGJ2: 0.37 ± 0.016 ng/mL
  PGD2: 0.23 ± 0.007 ng/mL
  PGE2: 0.42 ± 0.020 ng/mL
[1]
  15d-PGJ2: 0.85 ± 0.019^ ng/mL
  PGD2: 0.40 ± 0.030^d ng/mL
  PGE2: 0.71 ± 0.012^b ng/mL
100 nM, 4 h, without TNF-α
  15d-PGJ2: 0.37 ± 0.018 ng/mL
  PGD2: 0.20 ± 0.013 ng/mL
  PGE2: 0.22 ± 0.020 ng/mL
100 nM, 24 h, without TNF-α
  15d-PGJ2: 1.70 ± 0.016^a ng/mL
  PGD2: 0.24 ± 0.031^a ng/mL
  PGE2: 0.24 ± 0.022 ng/mL
